ChEMBL document CHEMBL1201862, “PubChem BioAssay data set” (2004)
Where “and” joins values, the source holds several entries; their conditions need not be identical. Equal values may be shown once.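 Tested at 5 concentrations; 48 h exposure; 96-well plates; endpoints linearly interpolated, else capped at highest concentration. GI50: concentration for 50% inhibition of growth.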 Calls of active or inactive are those of the source. No stated cut-off is given here; in the data, active = GI50 up to about 1.1 µM and inactive = higher.

Legend:
Assay in all cases: NCI anticancer screen, dose series, 48 h
786-0 = test system: 786-0
CCRF-CEM = test system: CCRF-CEM
COLO 205 = test system: COLO 205
DMS-114 = test system: DMS-114
DU-145 = test system: DU-145
EKVX = test system: EKVX
HCT-15 = test system: HCT-15
HL-60 = test system: HL-60
HOP-18 = test system: HOP-18
HOP-62 = test system: HOP-62
HOP-92 = test system: HOP-92
Hs-578T = test system: Hs-578T
IGROV-1 = test system: IGROV-1
K562 = test system: K562
KM-20L2 = test system: KM-20L2
M14 = test system: M14
MCF7 = test system: MCF7
MOLT-4 = test system: MOLT-4
NCI/ADR-RES = test system: NCI/ADR-RES
OVCAR-8 = test system: OVCAR-8
PC-3 = test system: PC-3
RPMI-8226 = test system: RPMI-8226
SF-268 = test system: SF-268
SF-295 = test system: SF-295
SF-539 = test system: SF-539
SK-MEL-2 = test system: SK-MEL-2
SK-OV-3 = test system: SK-OV-3
SNB-19 = test system: SNB-19
SNB-75 = test system: SNB-75
SNB-78 = test system: SNB-78
SR = test system: SR
U-251 = test system: U-251
UACC-257 = test system: UACC-257
UACC-62 = test system: UACC-62
A498 = test system: A498
A549 = test system: A549
ACHN = test system: ACHN
CAKI-1 = test system: CAKI-1
DMS-273 = test system: DMS-273
HCC 2998 = test system: HCC 2998
HCT-116 = test system: HCT-116
HT-29 = test system: HT-29
KM12 = test system: KM12
LOX IMVI = test system: LOX IMVI
LXFL 529 = test system: LXFL 529
M19-MEL = test system: M19-MEL
Malme-3M = test system: Malme-3M
NCI-H226 = test system: NCI-H226
NCI-H23 = test system: NCI-H23
NCI-H460 = test system: NCI-H460
NCI-H522 = test system: NCI-H522
OVCAR-3 = test system: OVCAR-3
OVCAR-4 = test system: OVCAR-4
OVCAR-5 = test system: OVCAR-5
RXF 393 = test system: RXF 393
SK-MEL-28 = test system: SK-MEL-28
SK-MEL-5 = test system: SK-MEL-5
SN12C = test system: SN12C
SW-620 = test system: SW-620
TK-10 = test system: TK-10
UO-31 = test system: UO-31
DLD-1 = test system: DLD-1
BT-549 = test system: BT-549
MDA-MB-231 = test system: MDA-MB-231
MDA-MB-435 = test system: MDA-MB-435
MDA-N = test system: MDA-N
T47D = test system: T47D
XF498 = test system: XF498

Measured: GI50

Cc1ccc(C)c(NC(=O)CC2Sc3ccccc3NC2=O)c1 (configuration not stated)
inactive: 786-0 18.3 µM and 25.2 µM | CCRF-CEM > 56.2 µM and > 86.3 µM | COLO 205 > 100 µM | DMS-114 49.5 µM and 30.3 µM | DU-145 > 100 µM and > 74.1 µM | EKVX 75.7 µM and > 70.5 µM | HL-60 > 96.4 µM and > 56.2 µM | HOP-18 25.1 µM and 16.7 µM | HOP-62 20.7 µM and 17.6 µM | HOP-92 19.1 µM and 11.9 µM | Hs-578T 22.6 µM | IGROV-1 20.8 µM and 35.7 µM | K562 > 56.2 µM and 68.5 µM | KM-20L2 > 100 µM and > 96.8 µM | M14 51.3 µM | MCF7 > 95.5 µM and 62.4 µM | MOLT-4 > 56.2 µM and > 77.3 µM | NCI/ADR-RES > 49 µM | OVCAR-8 15.5 µM and 18.6 µM | PC-3 > 89.7 µM and 79.3 µM | RPMI-8226 > 100 µM and 53 µM | SF-268 14.7 µM and 26.2 µM | SF-295 27.9 µM and 50.1 µM | SF-539 33.7 µM and 29.4 µM | SK-MEL-2 30.1 µM and 50.8 µM | SK-OV-3 21.2 µM and 22.7 µM | SNB-19 19.8 µM and 32.7 µM | SNB-75 10.7 µM and 10.4 µM | SNB-78 14.5 µM and 23.1 µM | SR > 46.5 µM and 27.8 µM | U-251 15 µM and 27 µM | UACC-257 34.2 µM and > 67 µM | UACC-62 68.9 µM and > 85.5 µM
38.7 µM and 61 µM: HCT-15

COc1cc(CNc2cnc3ccc(N)cc3n2)cc(OC)c1OC
> 100 µM: HCT-15
inactive: 786-0 > 100 µM | A498 > 100 µM | A549 > 100 µM | ACHN > 100 µM | CAKI-1 > 100 µM | CCRF-CEM > 100 µM | COLO 205 > 100 µM | DMS-114 > 100 µM | DMS-273 99.8 µM | EKVX > 100 µM | HCC 2998 72.4 µM | HCT-116 > 100 µM | HL-60 36.3 µM | HOP-18 > 100 µM | HOP-62 > 100 µM | HOP-92 > 100 µM | HT-29 > 100 µM | IGROV-1 > 100 µM | K562 36.3 µM | KM-20L2 > 100 µM | KM12 > 100 µM | LOX IMVI > 100 µM | LXFL 529 > 100 µM | M14 > 100 µM | M19-MEL 66.8 µM | MOLT-4 > 100 µM | Malme-3M > 100 µM | NCI-H226 > 100 µM | NCI-H23 > 100 µM | NCI-H460 > 100 µM | NCI-H522 > 100 µM | OVCAR-3 > 100 µM | OVCAR-4 > 100 µM | OVCAR-5 > 100 µM | OVCAR-8 > 100 µM | RPMI-8226 91.4 µM | RXF 393 > 100 µM | SF-268 > 100 µM | SF-295 > 100 µM | SF-539 > 100 µM | SK-MEL-28 > 100 µM | SK-MEL-2 > 100 µM | SK-MEL-5 71.3 µM | SK-OV-3 > 100 µM | SN12C > 100 µM | SNB-19 > 100 µM | SNB-75 > 100 µM | SNB-78 > 100 µM | SW-620 45.1 µM | TK-10 > 100 µM | U-251 > 100 µM | UACC-257 > 100 µM | UACC-62 > 100 µM | UO-31 > 100 µM

CC1=C(C(=O)Nc2ccccc2)C(c2ccccc2)C(C(=O)Nc2ccccc2)=C(C)N1
23.4 µM: HCT-15
inactive: 786-0 76.4 µM | A498 86.1 µM | A549 35.2 µM | ACHN 17.6 µM | CAKI-1 4.74 µM | COLO 205 38.4 µM | DLD-1 52.7 µM | DMS-114 19.2 µM | DMS-273 47.4 µM | EKVX 76.4 µM | HCC 2998 31 µM | HCT-116 26.5 µM | HL-60 16.3 µM | HOP-18 > 100 µM | HOP-62 > 100 µM | HOP-92 29.3 µM | HT-29 32.2 µM | IGROV-1 75.9 µM | KM-20L2 25.2 µM | KM12 17.3 µM | LXFL 529 22.1 µM | M14 31.5 µM | M19-MEL 28.9 µM | MOLT-4 18.7 µM | Malme-3M > 100 µM | NCI-H226 > 100 µM | NCI-H23 43.1 µM | NCI-H460 45.8 µM | NCI-H522 16.3 µM | OVCAR-3 40.4 µM | OVCAR-4 60.7 µM | OVCAR-5 > 100 µM | OVCAR-8 75 µM | RXF 393 26.5 µM | SF-268 42.5 µM | SF-295 38.5 µM | SF-539 > 100 µM | SK-MEL-28 55.8 µM | SK-MEL-2 32.1 µM | SK-MEL-5 36.9 µM | SK-OV-3 > 100 µM | SN12C > 100 µM | SNB-19 94.4 µM | SNB-75 37.3 µM | SNB-78 > 100 µM | SW-620 47.5 µM | TK-10 91 µM | U-251 48.1 µM | UACC-257 36.1 µM | UACC-62 15.4 µM | UO-31 71.6 µM

Cc1cc(O)c2c(=O)c3c(O)cc(O)c4c5c(O)cc(O)c6c(=O)c7c(O)cc(C)c8c1c2c(c34)c(c78)c65 [HYPERICIN]
inactive: 786-0 > 100 µM | A549 52.6 µM | ACHN > 100 µM | BT-549 > 100 µM | CAKI-1 > 100 µM | DLD-1 21.3 µM | DMS-273 56.4 µM | DU-145 > 100 µM | EKVX > 100 µM and 62.5 µM | HOP-18 63.1 µM | HOP-62 28.3 µM | Hs-578T > 100 µM | K562 61.8 µM and 33.3 µM | KM-20L2 21.7 µM | KM12 54.5 µM | M14 > 100 µM | M19-MEL 44.2 µM | MDA-MB-231 10.1 µM | MDA-MB-435 > 100 µM | MDA-N > 100 µM | Malme-3M 61 µM | OVCAR-3 > 100 µM and 67 µM | OVCAR-8 74.3 µM | PC-3 > 100 µM | RXF 393 26.4 µM | SF-268 54 µM | SK-MEL-28 53.1 µM | SK-MEL-5 59.8 µM | SN12C 60.8 µM | SNB-19 > 100 µM | SNB-78 42.5 µM | SR 99.8 µM | SW-620 51.9 µM | T47D > 100 µM | TK-10 > 100 µM | XF498 71.1 µM

C/C1=C\[C@@H](O)C(=O)/C=C/C=C\c2csc(n2)[C@@H](C)NC(=O)C[C@@]2(CC1)[S+]([O-])SC(=O)[C@]2(C)O (some centres not stated) [LEINAMYCIN]
active: 786-0 0.00391 µM | A498 0.01 µM | A549 0.12 µM | BT-549 0.00151 µM | CAKI-1 0.00133 µM | CCRF-CEM 0.00105 µM | COLO 205 0.0149 µM | DLD-1 0.0209 µM | DMS-114 0.0353 µM | DMS-273 0.0135 µM | DU-145 0.00679 µM | EKVX 0.261 µM | HCC 2998 0.184 µM | HL-60 0.000752 µM | HOP-18 0.0301 µM | HOP-62 0.13 µM | HOP-92 0.00228 µM | HT-29 0.04 µM | Hs-578T 0.0337 µM | IGROV-1 0.2 µM | K562 0.00456 µM | KM-20L2 0.0881 µM | KM12 0.0813 µM | LOX IMVI 0.0116 µM | LXFL 529 0.0139 µM | M14 0.00692 µM | M19-MEL 0.0344 µM | MCF7 0.499 nM | MDA-MB-231 0.0321 µM | MDA-MB-435 0.0187 µM | MDA-N 0.0101 µM | MOLT-4 0.00486 µM | Malme-3M 0.00656 µM | NCI-H226 0.206 µM | NCI-H23 0.00594 µM | NCI-H460 0.00986 µM | NCI-H522 0.00188 µM | NCI/ADR-RES 0.0137 µM | OVCAR-3 0.0112 µM | OVCAR-4 0.0217 µM | OVCAR-5 0.104 µM | OVCAR-8 0.0174 µM | PC-3 0.0128 µM | RPMI-8226 0.00445 µM | RXF 393 0.0127 µM | SF-268 0.0272 µM | SF-295 0.0446 µM | SF-539 0.00968 µM | SK-MEL-28 0.0214 µM | SK-MEL-2 0.00601 µM | SK-MEL-5 0.00673 µM | SK-OV-3 0.138 µM | SN12C 0.0203 µM | SNB-19 0.284 µM | SNB-75 0.0252 µM | SNB-78 0.01 µM | SR 0.00327 µM | SW-620 0.00204 µM | T47D 0.00102 µM | TK-10 0.0266 µM | U-251 0.0454 µM | UACC-257 0.0298 µM | UACC-62 0.0124 µM | UO-31 0.0308 µM
0.0134 µM: HCT-15
